Holding throughout (test): NCI anticancer screen, dose series, 48 h
Test [1] deals with CAKI-1 renal.
Test [2] deals with SF-539 CNS.
Test [3] has as its system HCT-116 colon.
Test [4] relates to UACC-257 melanoma.
In test [5] the test system is NCI-H23 lung.
Test [6] relates to OVCAR-5 ovarian.
Test [7] concerns SNB-19 CNS.
Test [8] concerns IGROV1 ovarian.
Test [9] concerns SW-620 colon.
The test system of test [10] is LOX IMVI melanoma.
Test [11] relates to SK-MEL-2 melanoma.
In test [12] the test system is SN12C renal.
Test [13] concerns OVCAR-3 ovarian.
Test [14] concerns HOP-62 NSCLC.
The subject of test [15] is K-562 leukemia.
Test [16] deals with CCRF-CEM leukemia.
Test [17] deals with TK-10 renal.
Test [18] concerns SF-295 CNS.
Test [19] relates to KM12 colon.
The test system of test [20] is SNB-75 CNS.

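Method: 48-hour compound exposure of cells in 96-well plates, five concentrations, linear interpolation of endpoints. TGI: concentration producing complete growth inhibition.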 Where only a bound is given, the exact number is not on record here.

On to `CCO/N=[N+](\[O-])N(CC)CC`, for which the TGI in test [1], in test [2], in test [3], in test [4], in test [5] and in test [6] was above 100 µM each time. Also, the TGI in test [7], in test [8], in [9], in test [10], in test [11] and in [12] was above 100 µM each time. The TGI in [13], in [14], in [15], in test [16], in test [17] and in test [18] was above 100 µM in each case. In test [19], this compound returned a TGI above 100 µM.
As for `COc1ccc(-c2cc(N3CCN(c4ccccc4)CC3)c(C#N)c(=O)o2)cc1`, the TGI in test [1] was 53.9 µM; in [2] it was 41.5 µM; in test [3] it was above 100 µM; in test [4] it was above 100 µM; in test [5] it was above 100 µM; in test [6], above 100 µM. Further, the TGI in test [7] was 49.8 µM; in [8], above 100 µM; in test [9], above 100 µM; in test [20], 31.7 µM; in [10] it was above 100 µM; in test [11], 53.6 µM. For the same compound, the TGI is above 100 µM in [12]; above 100 µM in test [15]; above 100 µM in test [16]; 58 µM in test [17]; 59.5 µM in [18]; above 100 µM in [19].
For `COc1cc(C2c3cc4c(cc3[C@@H](Nc3cccc(C(C)=O)c3)C3COC(=O)[C@H]23)OCO4)cc(OC)c1O` (some centres not stated), the TGI was 2.13 µM in test [1]; 1.24 µM in test [2]; 7.81 µM in [3]; 8.57 µM in [4]; 3.14 µM in test [5]; above 59.7 µM in test [6]. The TGI in test [7] is 4.79 µM; in test [8] it was 24.6 µM; in test [9] it was above 38.2 µM; in test [10], 4.38 µM; in test [11] it was 7.43 µM; in test [13] it was 13.9 µM. The TGI in test [14] is 0.538 µM; in test [15] it was 6.1 µM; in test [16], 0.231 µM; in [18], 1.39 µM; in test [19] it was 5.67 µM.
In the case of `C=C1C(=O)OC2C1CC(O)/C(C)=C\CCC1(C)OC21` (configuration not stated), the TGI is above 100 µM in test [2]; above 100 µM in test [3]; above 100 µM in [4]; above 100 µM in test [5]; 75 µM in [6]; above 100 µM in [7]. Moreover, the TGI is above 100 µM in test [8]; above 100 µM in test [9]; above 100 µM in [20]; 78.7 µM in test [10]; 44.5 µM in [11]; 34.1 µM in [13]. Moreover, the TGI in test [14] is 49.3 µM; in test [16] it was above 100 µM; in test [17] it was above 100 µM; in test [18], above 100 µM; in [19], above 100 µM.
For the compound `O=C(CSCC(=O)N/N=C\c1ccc(-c2ccccc2)cc1)N/N=C\c1ccc(-c2ccccc2)cc1`, the TGI was above 100 µM in [1]; 37.9 µM in [2]; 21.4 µM in test [3]; above 100 µM in test [4]; 35.4 µM in test [5]; 74.8 µM in test [6]. Moreover, the TGI is above 100 µM in [7]; 29.2 µM in test [8]; 38.4 µM in [9]; 41.6 µM in test [20]; 32.4 µM in test [10]; 83.4 µM in test [11]. The TGI in test [12] was 53.6 µM; in test [13] it was 30 µM; in test [14], 51.9 µM; in test [15], above 100 µM; in test [17], 64.2 µM; in [18] it was 40.9 µM. The TGI in test [19] was 49.2 µM.
As to `c1ccc(-c2nn(-c3ccccc3)[n+](-c3ccccc3)n2)cc1`, the TGI in [1] was above 100 µM; in test [2] it was above 100 µM; in test [3], above 56.7 µM; in test [4], 11.7 µM; in test [5] it was 28.3 µM; in test [6], above 100 µM. Moreover, the TGI in [7] was above 100 µM; in [8], above 100 µM; in test [9], above 100 µM; in [20] it was above 100 µM; in [10], above 92.4 µM; in test [11] it was above 80.1 µM. Further, the TGI in test [12] was above 100 µM; in test [14], above 100 µM; in test [15], above 100 µM; in test [16], above 39.8 µM; in test [17] it was above 88 µM; in test [18] it was above 100 µM. Also, the TGI in test [19] is above 81.7 µM.
Regarding `CC(C)(Br)C1(O)CCCN1C(=O)c1ccccc1` (configuration not stated), the TGI in test [2], in [3], in test [4], in test [5], in test [6] and in test [7] was above 100 µM each time. Moreover, the TGI in [8], in test [9], in [20], in test [10], in test [11] and in [12] was above 100 µM in each case. Besides, the TGI in test [13], in test [15], in test [16], in test [17], in [18] and in test [19] was above 100 µM each time.
As for `CN(C)c1ccc(N=Nc2ccccn2)cc1`, the TGI in [1] is above 100 µM; in test [2] it was above 100 µM; in test [3] it was above 100 µM; in test [4], 25.7 µM; in [5], 83.2 µM; in test [6] it was above 100 µM. Also, the TGI in test [7], in test [8], in test [9], in test [20], in test [10] and in test [11] was above 100 µM in each case. Further, the TGI is above 100 µM in test [12]; above 100 µM in [13]; above 100 µM in [14]; above 100 µM in [15]; 91.2 µM in test [16]; above 100 µM in test [17]. The TGI in test [18] and in [19] was above 100 µM in each case.
In the case of `CC12Cc3cc4c(cc3C1(c1ccc([N+](=O)[O-])cc1)OCCO2)OCO4` (configuration not stated), the TGI in [1], in [2], in test [3], in [4], in [5] and in [6] was above 100 µM each time. In addition, the TGI was 73.2 µM in [7]; 85.1 µM in test [8]; above 100 µM in test [9]; above 100 µM in test [10]; above 100 µM in test [11]; above 100 µM in test [12]. For the same compound, the TGI in test [13] is above 100 µM; in test [14], 46.5 µM; in [15], above 100 µM; in test [16], above 100 µM; in test [17], above 100 µM; in [18], 57.7 µM. In test [19], the TGI is above 100 µM.
`Cc1ccc(S(N)(=O)=O)cc1`: the TGI in test [2], in test [3], in test [4], in [5], in test [6] and in test [7] was above 1000 µM in each case. Besides, the TGI in test [8], in [9], in test [10], in test [11], in test [12] and in test [13] was above 1000 µM in each case. Further, the TGI in test [14], in [15], in test [16], in test [17], in test [18] and in test [19] was above 1000 µM in each case.
As to `Cc1nc2ccccc2c(=O)[nH]1`, the TGI in test [2], in [3], in test [4], in [5], in test [6] and in test [7] was above 100 µM each time. For the same compound, the TGI in [8], in test [9], in test [20], in [10], in test [11] and in [12] was above 100 µM each time. Besides, the TGI in test [13], in test [14], in [15], in test [16], in test [17] and in test [18] was above 100 µM each time. In addition, the TGI in test [19] is above 100 µM.
Consider `O=[N+]([O-])c1cn[n+]([O-])c2ccccc12`, for which the TGI in test [1] turned out to be 8.1 µM; in [2], 22.7 µM; in test [3], 2.62 µM; in test [4], 26.2 µM; in [5], 36.1 µM; in [6], 25.6 µM. The TGI is 25.2 µM in test [7]; 4.91 µM in test [9]; 20.9 µM in [10]; 21.5 µM in test [12]; 7.28 µM in test [13]; 26.2 µM in test [14]. In addition, the TGI in test [17] is 25.8 µM; in test [18], 17.6 µM; in test [19] it was 18.4 µM.
As for `COc1cc[n+](C)cc1`, the TGI in test [2], in [3], in test [4], in test [5], in test [6] and in test [7] was above 100 µM throughout. For the same compound, the TGI in test [8], in test [9], in [20], in test [10], in test [11] and in test [12] was above 100 µM in each case. In addition, the TGI in [13], in [14], in test [15], in [16], in [18] and in test [19] was above 100 µM in each case.
For `Cc1cn(Cc2ccccc2CCl)c(=O)[nH]c1=O`, the TGI in test [1] worked out at 24.8 µM; in test [2], 24.6 µM; in test [3] it was 17.9 µM; in test [4], 31.1 µM; in test [5], 23.3 µM; in test [6], 43.4 µM. The TGI in test [7] was determined as 25.9 µM; in [8], 13.9 µM; in [9], 34.1 µM; in test [20], 30 µM; in test [11], 33.8 µM; in [12], 32.7 µM. Also, the TGI is 12.6 µM in test [13]; 35.3 µM in test [14]; 56 µM in [15]; above 100 µM in test [16]; 33.8 µM in test [17]; 30.4 µM in [18]. Further, in test [19], the TGI came out at 37.4 µM.
Turning to `N#Cc1c(NC(=S)NC(=O)c2ccccc2)nc2c(c1-c1ccccc1)CCCC2`, the TGI in test [1], in test [3], in [4], in [5], in test [6] and in test [7] was above 100 µM in each case. Also, the TGI is above 100 µM in test [8]; above 100 µM in [9]; 41.5 µM in test [20]; above 100 µM in test [10]; above 100 µM in test [13]; above 100 µM in test [14]. The TGI in test [15], in [16], in test [17], in test [18] and in [19] was above 100 µM in each case.
